Reference: patent publication US20070049578A1, “Cinnamamide compounds as metabotropic glutamate receptor antagonists” (AstraZeneca AB, priority 2005, published 2007)

The compounds below were run against T1, human mGluR5d (Homo sapiens, UniProt P41594) (assay: Functional assessment of mGluR5 antagonism in cell lines expressing mGluR5d (FLIPR [Ca2+]i mobilization and/or IP3 turnover; not stated which assay gave the values)). Settings: assays described herein (FLIPR / IP3), cells expressing human mGluR5d.
T1 construct: expressed in transfected cells; host or cells: GHEK (human embryonic kidney cells expressing glutamate transporter) for the IP3 assay
Assay type: cell-based
From the text: (§1) The pharmacological properties of the compounds of the invention can be analyzed using standard assays for functional activity. Examples of glutamate receptor assays are well known in the art as described in for example Aramori et al., Neuron 8:757 (1992), Tanabe et al., Neuron 8:169 (1992), Miller et al., J. Neuroscience 15: 6103 (1995), Balazs, et al., J. Neurochemistry 69:151 (1997). The methodology described in these publications is incorporated herein by reference. Conveniently, the compounds of the invention can be studied by means of an assay that measures the mobilization of intracellular calcium, [Ca^2+]i in cells expressing mGluR5.
Intracellular calcium mobilization was measured by detecting changes in fluorescence of cells loaded with the fluorescent indicator fluo-3. Fluorescent signals were measured using the FLIPR system (Molecular Devices). A two addition experiment was used that could detect compounds that either activate or antagonize the receptor.
For FLIPR analysis, cells expressing human mGluR5d were seeded on collagen coated clear bottom 96-well plates with black sides and analysis of [Ca^2+]i mobilization was done 24 hours after seeding.
FLIPR experiments were done using a laser setting of 0.800 W and a 0.4 second CCD camera shutter speed. Each FLIPR experiment was initiated with 160 μL of buffer present in each well of the cell plate. After each addition of the compound, the fluorescence signal was sampled 50 times at 1 second intervals followed by 3 samples at 5 second intervals. Responses were measured as the peak height of the response within the sample period.
EC50 and IC50 determinations were made from data obtained from 8-point concentration response curves (CRC) performed in duplicate. Agonist CRC were generated by scaling all responses to the maximal response observed for the plate. Antagonist block of the agonist challenge was normalized to the average response of the agonist challenge in 14 control wells on the same plate.
We have validated a secondary functional assay for mGluR5d based on Inositol Phosphate (IP3) turnover. IP3 accumulation is measured as an index of receptor mediated phospholipase C turnover. GHEK cells stably expressing the human mGluR5d receptors were incubated with [3H] myo-inositol overnight, washed three times in HEPES buffered saline and pre-incubated for 10 minutes with 10 mM LiCl. Compounds (agonists) were added and incubated for 30 minutes at 37° C. Antagonist activity was determined by pre-incubating test compounds for 15 minutes, then incubating in the presence of glutamate (80 μM) or DHPG (30 μM) for 30 minutes. Reactions were terminated by the addition of perchloric acid (5%). Samples were collected and neutralized, and inositol phosphates were separated using Gravity-Fed Ion-Exchange Columns.
Functional Assessment of mGluR5 Antagonism in Cell Lines Expressing mGluR5D
as §1, with “The” for “The pharmacological”, “pharmacological” for “functional”, “Conveniently, the compounds of the invention can be studied by means of an assay that measures the mobilization of intracellular calcium, [Ca^2+]i in cells expressing mGluR5.” left out

T1 sequence (P41594 21-942 isoform P41594-3 limits assumed): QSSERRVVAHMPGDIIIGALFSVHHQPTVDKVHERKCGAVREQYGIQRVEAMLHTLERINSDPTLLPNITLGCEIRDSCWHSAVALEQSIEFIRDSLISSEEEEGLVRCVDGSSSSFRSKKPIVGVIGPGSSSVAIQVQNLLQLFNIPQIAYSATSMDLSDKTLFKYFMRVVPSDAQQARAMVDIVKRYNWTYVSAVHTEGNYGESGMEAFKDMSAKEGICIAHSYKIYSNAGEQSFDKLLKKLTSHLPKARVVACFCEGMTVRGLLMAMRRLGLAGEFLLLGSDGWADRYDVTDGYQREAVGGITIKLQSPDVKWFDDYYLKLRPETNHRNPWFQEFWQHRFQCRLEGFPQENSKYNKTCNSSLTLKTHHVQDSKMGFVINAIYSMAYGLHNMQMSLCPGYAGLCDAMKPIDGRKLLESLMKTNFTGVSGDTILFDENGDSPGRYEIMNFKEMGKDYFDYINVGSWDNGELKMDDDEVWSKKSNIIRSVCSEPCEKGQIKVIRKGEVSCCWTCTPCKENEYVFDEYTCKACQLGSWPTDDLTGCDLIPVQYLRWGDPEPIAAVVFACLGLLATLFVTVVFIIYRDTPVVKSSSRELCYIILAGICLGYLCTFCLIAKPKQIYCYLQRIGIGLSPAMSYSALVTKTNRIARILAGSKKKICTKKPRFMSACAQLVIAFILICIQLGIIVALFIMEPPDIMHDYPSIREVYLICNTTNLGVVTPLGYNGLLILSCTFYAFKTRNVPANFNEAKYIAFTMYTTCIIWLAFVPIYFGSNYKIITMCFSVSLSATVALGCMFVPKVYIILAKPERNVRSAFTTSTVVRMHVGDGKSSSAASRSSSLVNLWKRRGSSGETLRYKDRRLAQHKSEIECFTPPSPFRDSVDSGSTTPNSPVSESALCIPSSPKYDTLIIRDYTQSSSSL

| SMILES | IC50 |
| --- | --- |
| COCC1CN(c2nccnc2C#N)CCN1C(=O)/C=C/c1cccc(Cl)c1 (centres unmarked) [Example 29.1, 3-[4-[(2E)-3-(3-chlorophenyl)prop-2-enoyl]-3-(methoxymethyl)piperazin-1-yl]pyrazine-2-carbonitrile] | 384 nM |
| C[C@@H]1CN(c2ncc(F)cc2C#N)CCN1C(=O)/C=C/c1cccc(OC(F)F)c1 [Example 11.28, 2-((3R)-4-{(2E)-3-[3-(difluoromethoxy)phenyl]prop-2-enoyl}-3-methylpiperazin-1-yl)-5-fluoronicotinonitrile] | 293 nM |
| CCOC(=O)N1CCN(C(=O)/C=C/c2cccc(Cl)c2)CC1 [Example 11.4, ethyl 4-[(2E)-3-(3-chloro-phenyl)prop-2-enoyl]piperazine-1-carboxylate] | 1110 nM |

Stronger by IC50, values ahead:

| IC50 | SMILES |
| --- | --- |
| 10 nM | O=C(/C=C/c1cccc(Cl)c1)N1CCN(c2ncccc2[N+](=O)[O-])CC1 [Example 11.6, 1-[(2E)-3-(3-chlorophenyl)prop-2-enoyl]-4-(3-nitro-pyridin-2-yl)piperazine] |
| 33 nM | C[C@@H]1CN(c2ncccc2C#N)CCN1C(=O)/C=C/c1cccc(Br)c1 [Example 11.22, 2-{(3R)-4-[(2E)-3-(3-bromo-phenyl)prop-2-enoyl]-3-methylpiperazin-1-yl}nicotinonitrile] |
